Data on two compounds can be found in publication PMC4475277 (Chemistry & biology, 2015).

One test has as its target T1, bsNOS (WT) (Bacillus subtilis, UniProt O34453).
T1 sequence (O34453 1-363): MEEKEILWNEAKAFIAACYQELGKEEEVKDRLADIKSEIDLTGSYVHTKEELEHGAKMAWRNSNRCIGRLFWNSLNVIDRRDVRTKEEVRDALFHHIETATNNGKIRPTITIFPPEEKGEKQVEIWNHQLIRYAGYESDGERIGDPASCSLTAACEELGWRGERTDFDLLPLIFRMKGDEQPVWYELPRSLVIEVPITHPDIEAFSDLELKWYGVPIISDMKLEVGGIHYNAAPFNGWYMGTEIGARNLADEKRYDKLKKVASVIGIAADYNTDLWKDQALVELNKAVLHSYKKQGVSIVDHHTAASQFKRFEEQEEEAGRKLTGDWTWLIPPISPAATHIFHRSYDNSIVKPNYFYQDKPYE
As to conditions: read-out: WT - KS; imidazole displacement; ref Wang et al., 2004; cited from earlier work.

The next test has as its target I218V bsNOS (Bacillus subtilis, UniProt O34453, I218V). As to conditions: read-out: I218V - KS; imidazole displacement; ref Wang et al., 2004; cited from earlier work.
The test system of test [1] is bBiDomain (a chimera of bsNOS and redox partner YkuN). The test is described as follows: bBiDomain single time point bacterial NOS activity inhibition. The class given is biochemical, Bacillus subtilis. As to conditions: inhibitor 30 µM, NOHA 200 µM, 4 min at 35 °C.

I218V bsNOS, sequence (O34453 whole entry I218V): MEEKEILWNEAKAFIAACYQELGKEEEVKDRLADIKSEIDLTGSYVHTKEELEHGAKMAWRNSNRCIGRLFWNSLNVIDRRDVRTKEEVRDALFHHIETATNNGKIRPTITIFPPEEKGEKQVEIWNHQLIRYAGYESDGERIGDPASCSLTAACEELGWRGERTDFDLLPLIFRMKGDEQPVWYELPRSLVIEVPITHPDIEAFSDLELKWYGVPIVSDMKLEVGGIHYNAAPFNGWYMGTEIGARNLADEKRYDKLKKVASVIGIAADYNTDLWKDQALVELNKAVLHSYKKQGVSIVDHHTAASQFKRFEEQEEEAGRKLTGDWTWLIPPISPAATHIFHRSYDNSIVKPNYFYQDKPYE

For `N=C(N)NCCC[C@H](N)C(=O)O` [L-Arg], the figures for the Kd on bsNOS (WT) and at I218V bsNOS were 4.8 ± 0.1 µM and 2 ± 0.2 µM, respectively. In the case of `NC(=NCCC[C@H](N)C(=O)O)N[N+](=O)[O-]` [L-NNA], in test [1], the “% nitrite (nitrite with inhibitor divided by nitrite without inhibitor)” value worked out at 40.9 ± 5.3 % nitrite.
